# Data from patent US12258354B2, “AhR modulators” (IDEAYA BIOSCIENCES, INC., priority 2018, dated 2025).
# Biological target: T1, hAhR (Homo sapiens, UniProt P35869)
# T1 construct: Stably integrated DRE-luciferase cell lines were generated by transducing the both cell lines with Cignal XRE luciferase reporter; endogenous in cells; host or cells: HEPG2 DRE-Luc cells (only the XRE luciferase reporter was transduced)
# T1 sequence (P35869 11-848): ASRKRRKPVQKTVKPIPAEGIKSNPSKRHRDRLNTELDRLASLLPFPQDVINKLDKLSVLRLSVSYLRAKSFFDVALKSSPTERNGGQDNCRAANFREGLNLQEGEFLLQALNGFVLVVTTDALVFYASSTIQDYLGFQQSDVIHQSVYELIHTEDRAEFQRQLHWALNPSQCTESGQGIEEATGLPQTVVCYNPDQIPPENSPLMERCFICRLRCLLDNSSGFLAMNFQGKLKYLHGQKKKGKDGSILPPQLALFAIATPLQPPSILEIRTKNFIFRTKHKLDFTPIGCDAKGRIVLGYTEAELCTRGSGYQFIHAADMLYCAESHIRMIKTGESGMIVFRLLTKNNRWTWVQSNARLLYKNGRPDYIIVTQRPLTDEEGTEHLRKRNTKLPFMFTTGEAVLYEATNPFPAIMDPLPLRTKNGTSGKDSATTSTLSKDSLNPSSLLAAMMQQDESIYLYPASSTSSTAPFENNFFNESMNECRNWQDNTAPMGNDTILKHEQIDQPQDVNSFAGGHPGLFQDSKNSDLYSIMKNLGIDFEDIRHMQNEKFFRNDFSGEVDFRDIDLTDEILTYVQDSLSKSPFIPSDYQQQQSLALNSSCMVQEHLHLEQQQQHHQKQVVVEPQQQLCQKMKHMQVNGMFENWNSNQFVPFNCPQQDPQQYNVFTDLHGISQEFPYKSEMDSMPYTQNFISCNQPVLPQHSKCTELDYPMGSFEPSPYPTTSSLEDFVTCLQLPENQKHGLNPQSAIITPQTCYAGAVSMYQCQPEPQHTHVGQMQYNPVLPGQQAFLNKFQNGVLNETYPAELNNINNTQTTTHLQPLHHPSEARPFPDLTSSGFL
# Experiment: DRE-luciferase transcriptional reporter assay in HEPG2 DRE-Luc cells, TCDD-induced (antagonist mode)
# Assay type: cell-based
# Settings: relative IC50, 3 nM TCDD, 24-hour incubation, firefly luciferase readout
# Summary of the method: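 Stable DRE(XRE)-luciferase HEPG2 clone seeded in OptiMEM with 0.5% heat-inactivated FBS, then given a semi-log compound dilution plus TCDD at 3 nM final. After 24 h, cells were lysed and firefly luminescence read. Response was normalised between TCDD and vehicle, and relative IC50 was taken as half-reduction between the fitted curve plateaus.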
row,Structure (SMILES),IC50
1,"Cc1cc(-c2ncc3cc(C(F)(F)F)ccc3n2)ccc1N1CCOc2cnn(CC#N)c2C1=O [compound 036, 2-(7-(2-methyl-4-(6-(trifluoromethyl)quinazolin-2-yl)phenyl)-8-oxo-5,6,7,8-tetrahydro-1H-pyrazolo[3,4-f][1,4]oxazepin-1-yl)acetonitrile]",< 200 nM
2,"Cc1cc(-c2ncc3cc(C(F)(F)F)ccc3n2)ccc1N1CCOc2cn(CCO)nc2C1=O [compound 037, 2-(2-hydroxyethyl)-7-(2-methyl-4-(6-(trifluoromethyl)quinazolin-2-yl)phenyl)-6,7-dihydro-2H-pyrazolo[3,4-f][1,4]oxazepin-8 (5H)-one]",< 200 nM
3,"Cc1cc(-c2ncc3nc(C(F)(F)F)ccc3n2)ccc1N1CCOc2cn[nH]c2C1=O [compound 038, 7-(2-methyl-4-(6-(trifluoromethyl)pyrido[3,2-d]pyrimidin-2-yl)phenyl)-6,7-dihydro-1H-pyrazolo[3,4-f][1,4]oxazepin-8 (5H)-one]",< 200 nM
4,"Cc1cc(-c2ncc3nc(C(F)(F)F)ccc3n2)ccc1N1CCOc2nn[nH]c2C1=O [compound 040, 7-[2-methyl-4-[6-(trifluoromethyl)pyrido[3,2-d]pyrimidin-2-yl]phenyl]-1H,5H,6H,7H,8H-[1,2,3]triazolo[4,5-f][1,4]oxazepin-8-one]",1000 to 10000 nM
5,"Cc1cc(-c2ncc3nc(C(F)(F)F)ccc3n2)ccc1N1CCOc2nn(C)nc2C1=O [compound 042, 2-methyl-7-(2-methyl-4-(6-(trifluoromethyl)pyrido[3,2-d]pyrimidin-2-yl)phenyl)-6,7-dihydro-2H-[1,2,3]triazolo[4,5-f][1,4]oxazepin-8 (5H)-one]",200 to 500 nM
6,"Cc1cc(-c2ncc3cc(C(F)(F)F)ccc3n2)ccc1N1CCOc2nn(C)nc2C1=O [compound 043, 2-methyl-7-(2-methyl-4-(6-(trifluoromethyl)quinazolin-2-yl)phenyl)-6,7-dihydro-2H-[1,2,3]triazolo[4,5-f][1,4]oxazepin-8 (5H)-one]",1000 to 10000 nM
7,"Cc1cc(-c2ncc3cc(C(F)(F)F)ccc3n2)ccc1N1C(=O)c2[nH]ncc2OCC1C (centres unmarked) [compound 044, 6-methyl-7-(2-methyl-4-(6-(trifluoromethyl)quinazolin-2-yl)phenyl)-6,7-dihydro-1H-pyrazolo[3,4-f][1,4]oxazepin-8 (5H)-one]",< 200 nM
8,"Cc1cc(-c2ccc3nc(C(F)(F)F)ccc3n2)ccc1N1C(=O)c2[nH]ncc2OCC1C (centres unmarked) [compound 045, 6-methyl-7-(2-methyl-4-(6-(trifluoromethyl)-1,5-naphthyridin-2-yl)phenyl)-6,7-dihydro-1H-pyrazolo[3,4-f][1,4]oxazepin-8 (5H)-one]",< 200 nM
9,"Cc1cc(-c2ncc3nc(C(F)(F)F)ccc3n2)ccc1N1C(=O)c2[nH]ncc2OCC1C (centres unmarked) [compound 046, 6-methyl-7-(2-methyl-4-(6-(trifluoromethyl)pyrido[3,2-d]pyrimidin-2-yl)phenyl)-6,7-dihydro-1H-pyrazolo[3,4-f][1,4]oxazepin-8 (5H)-one]",< 200 nM
10,"Cc1cc(-c2ncc3nc(C(F)(F)F)ccc3n2)ccc1N1CCOc2cn(C)nc2C1=O [compound 047, 2-methyl-7-(2-methyl-4-(6-(trifluoromethyl)pyrido[3,2-d]pyrimidin-2-yl)phenyl)-6,7-dihydro-2H-pyrazolo[3,4-f][1,4]oxazepin-8 (5H)-one]",< 200 nM
11,"Cc1cc(-c2ccc3nc(C(F)(F)F)ccc3n2)ccc1N1CCOc2cn(C)nc2C1=O [compound 048, 2-methyl-7-(2-methyl-4-(6-(trifluoromethyl)-1,5-naphthyridin-2-yl)phenyl)-6,7-dihydro-2H-pyrazolo[3,4-f][1,4]oxazepin-8 (5H)-one]",< 200 nM
12,"Cc1cc(-c2ncc3nc(C(F)(F)F)ccc3n2)ccc1N1CCOc2cnn(C)c2C1 [compound 049, 1-methyl-7-(2-methyl-4-(6-(trifluoromethyl)pyrido[3,2-d]pyrimidin-2-yl)phenyl)-5,6,7,8-tetrahydro-1H-pyrazolo[3,4-f][1,4]oxazepine]",< 200 nM
13,"Cn1ncc2c1C(=O)N(c1ccc(-c3ncc4nc(C(F)(F)F)ccc4n3)cc1)CCO2 [compound 050, 1-methyl-7-(4-(6-(trifluoromethyl)pyrido[3,2-d]pyrimidin-2-yl)phenyl)-6,7-dihydro-1H-pyrazolo[3,4-f][1,4]oxazepin-8 (5H)-one]",< 200 nM
14,"Cc1cc(-c2ncc3nc(F)ccc3n2)ccc1N1CCOc2cnn(C)c2C1=O [compound 051, 7-(4-(6-fluoropyrido[3,2-d]pyrimidin-2-yl)-2-methylphenyl)-1-methyl-6,7-dihydro-1H-pyrazolo[3,4-f][1,4]oxazepin-8 (5H)-one]",200 to 500 nM
15,"Cc1cc(-c2ccc3nc(F)ccc3n2)ccc1N1CCOc2cnn(C)c2C1=O [compound 052, 7-(4-(6-fluoro-1,5-naphthyridin-2-yl)-2-methylphenyl)-1-methyl-6,7-dihydro-1H-pyrazolo[3,4-f][1,4]oxazepin-8 (5H)-one]",500 to 1000 nM
16,"Cc1cc(-c2ncc3cc(F)ccc3n2)ccc1N1CCOc2cnn(C)c2C1=O [compound 053, 7-(4-(6-fluoroquinazolin-2-yl)-2-methylphenyl)-1-methyl-6,7-dihydro-1H-pyrazolo[3,4-f][1,4]oxazepin-8 (5H)-one]",200 to 500 nM
17,"Cc1cc(-c2ncc3cc(C(F)(F)F)ccc3n2)ccc1N1CCOc2cccnc2C1=O [compound 054, 4-(2-methyl-4-(6-(trifluoromethyl)quinazolin-2-yl)phenyl)-3,4-dihydropyrido[2,3-f][1,4]oxazepin-5 (2H)-one]",200 to 500 nM
18,"Cc1cc(-c2ncc3cc(C(F)(F)F)ccc3n2)ccc1N1CCOc2cncnc2C1=O [compound 055, 8-(2-methyl-4-(6-(trifluoromethyl)quinazolin-2-yl)phenyl)-7,8-dihydropyrimido[4,5-f][1,4]oxazepin-9 (6H)-one]",200 to 500 nM
19,"CCOC(=O)c1nn2c(c1C)C(=O)N(c1ccc(-c3ncc4cc(C(F)(F)F)ccc4n3)cc1C)CC2 [compound 056, ethyl 3-methyl-5-(2-methyl-4-(6-(trifluoromethyl)quinazolin-2-yl)phenyl)-4-oxo-4,5,6,7-tetrahydropyrazolo[1,5-a]pyrazine-2-carboxylate]",< 200 nM
20,"Cc1cc(-c2ncc3cc(C(F)(F)F)ccc3n2)ccc1N1CCn2nc(CO)c(C)c2C1=O [compound 057, 2-(hydroxymethyl)-3-methyl-5-(2-methyl-4-(6-(trifluoromethyl)-quinazolin-2-yl)phenyl)-6,7-dihydropyrazolo[1,5-a]pyrazin-4 (5H)-one]",< 200 nM
21,"Cc1cc(-c2ncc3cc(C(F)(F)F)ccc3n2)ccc1N1CCn2nc(C(C)O)c(C)c2C1=O (centres unmarked) [compound 058, 2-(1-hydroxyethyl)-3-methyl-5-(2-methyl-4-(6-(trifluoromethyl)-quinazolin-2-yl)phenyl)-6,7-dihydropyrazolo[1,5-a]pyrazin-4 (5H)-one]",< 200 nM
22,"Cc1cc(-c2ncc3cc(C(F)(F)F)ccc3n2)ccc1N1CCn2nc(C(C)(C)O)c(C)c2C1=O [compound 059, 2-(2-hydroxypropan-2-yl)-3-methyl-5-(2-methyl-4-(6-(trifluoromethyl)-quinazolin-2-yl)phenyl)-6,7-dihydropyrazolo[1,5-a]pyrazin-4 (5H)-one]",< 200 nM
23,"Cc1cc(-c2ncc3cc(C(F)(F)F)ccc3n2)ccc1N1CCn2nc(C(=O)O)c(C)c2C1=O [compound 060, 3-methyl-5-(2-methyl-4-(6-(trifluoromethyl)quinazolin-2-yl)phenyl)-4-oxo-4,5,6,7-tetrahydropyrazolo[1,5-a]pyrazine-2-carboxylic acid]",200 to 500 nM
24,"Cc1cc(-c2ncc3cc(C(F)(F)F)ccc3n2)ccc1N1CCn2nc(CN3CCOCC3)c(C)c2C1=O [compound 061, 3-methyl-5-(2-methyl-4-(6-(trifluoromethyl)quinazolin-2-yl)phenyl)-2-(morpholinomethyl)-6,7-dihydropyrazolo[1,5-a]pyrazin-4 (5H)-one]",< 200 nM
25,"Cc1cc(-c2ncc3cc(C(F)(F)F)ccc3n2)ccc1N1CCn2nc(C(=O)N3CCOCC3)c(C)c2C1 [compound 062, (3-methyl-5-(2-methyl-4-(6-(trifluoromethyl)quinazolin-2-yl)phenyl)-4,5,6,7-tetrahydropyrazolo[1,5-a]pyrazin-2-yl)(morpholino)methanone]",< 200 nM
26,"Cc1cc(-c2ncc3cc(C(F)(F)F)ccc3n2)ccc1N1CCn2nc(CN(C)C)c(C)c2C1=O [compound 063, 2-((dimethylamino)methyl)-3-methyl-5-(2-methyl-4-(6-(trifluoromethyl)-quinazolin-2-yl)phenyl)-6,7-dihydropyrazolo[1,5-a]pyrazin-4 (5H)-one]",< 200 nM
